Data on one compound can be found in ChEMBL document CHEMBL4831500, “Discovery of first-in-class imidazothiazole-based potent and selective ErbB4 (HER4) kinase inhibitors” (Eur J Med Chem, 2021).

A word on the IC50: it is the concentration at which inhibition is half-maximal. Broadly, the inhibition is the drop in the measured response relative to a control, in per cent.

Assay [1] concerns Panel NCI-60 (60 carcinoma cell lines). Put plainly: Growth inhibition of human panel NCI-60 (60 carcinoma cells) assessed as growth percent at 10 uM measured after 48 hrs by SRB assay relative to control. Type of assay: functional. As to conditions: read-out: Activity. Background: In SRB staining, fixed cells bind dye roughly in proportion to their protein.
Assay [2] deals with OVCAR-4. As to the kind of experiment: Antiproliferative activity against human OVCAR-4 cells assessed as cell growth inhibition measured after 48 hrs by SRB assay. The assay is classed as functional, cell-based. To be noted: OVCAR-4, 48 h.
The next assay concerns MDA-MB-468. As to the kind of experiment: Antiproliferative activity against human MDA-MB-468 cells assessed as cell growth inhibition measured after 48 hrs by SRB assay. Type of assay: functional, cell-based. As to conditions: MDA-MB-468, 48 h.
In another assay the test system is WI-38. Put plainly: Cytotoxicity against human WI-38 cells assessed as cell growth inhibition measured after 48 hrs by SRB assay. The assay is classed as cell-based. To be noted: WI-38, 48 h.
For another assay, the system named is MOLT-4. As to the kind of experiment: Antiproliferative activity against human MOLT-4 cells assessed as cell growth inhibition at 10 uM measured after 48 hrs by SRB assay relative to control. Type of assay: functional.
Another assay relates to NCI-H522. As to the kind of experiment: Antiproliferative activity against human NCI-H522 cells assessed as cell growth inhibition at 10 uM measured after 48 hrs by SRB assay relative to control. Type of assay: functional.
The subject of another assay is SK-MEL-5. As to the kind of experiment: Antiproliferative activity against human SK-MEL-5 cells assessed as cell growth inhibition at 10 uM measured after 48 hrs by SRB assay relative to control. Type of assay: functional.
Assay [3] has as its system OVCAR-4. As to the kind of experiment: Antiproliferative activity against human OVCAR-4 cells assessed as cell growth inhibition at 10 uM measured after 48 hrs by SRB assay relative to control. The assay is classed as functional.
The next assay concerns DU-145. As to the kind of experiment: Antiproliferative activity against human DU-145 cells assessed as cell growth inhibition at 10 uM measured after 48 hrs by SRB assay relative to control. Type of assay: functional.
Assay [4] concerns the target RAF proto-oncogene serine/threonine-protein kinase (Homo sapiens, UniProt P04049). As to the kind of experiment: Inhibition of RAF1 (unknown origin) at 10 uM incubated for 40 mins in presence of Mg/ATP mix by [gamma p33]-ATP based scintillation counting method relative to control.
Assay [5] relates to Serine/threonine-protein kinase B-raf (Homo sapiens), P15056 [V600E]. Put plainly: Inhibition of BRAF V600E mutant (unknown origin) at 10 uM incubated for 40 mins in presence of Mg/ATP mix by [gamma p33]-ATP based scintillation counting method relative to control.
Assay [6] has as its target Tyrosine-protein kinase JAK3 (Homo sapiens) (UniProt P52333). As to the kind of experiment: Inhibition of JAK3 (unknown origin) at 10 uM incubated for 40 mins in presence of Mg/ATP mix by [gamma p33]-ATP based scintillation counting method relative to control.
In assay [7] the target is T1, Receptor tyrosine-protein kinase erbB-4 (Homo sapiens, UniProt Q15303). Put plainly: Inhibition of ErbB4 (unknown origin) incubated for 40 mins in presence of Mg/ATP mix by [gamma p33]-ATP based scintillation counting method.
For assay [8], the target named is T1, Receptor tyrosine-protein kinase erbB-4. As to the kind of experiment: Potency index, ratio of staurosporine IC50 to test compound IC50 for inhibition of ErbB4 (unknown origin) at 10 uM incubated for 40 mins in presence of Mg/ATP mix by [gamma p33]-ATP based scintillation counting method.
The target in assay [9] is Voltage-gated inwardly rectifying potassium channel KCNH2 (Homo sapiens, UniProt Q12809). As to the kind of experiment: Inhibition of human ERG incubated for 3 hrs by competitive fluorescence tracer binding based assay.
Sequence of Voltage-gated inwardly rectifying potassium channel KCNH2 (Q12809 whole entry): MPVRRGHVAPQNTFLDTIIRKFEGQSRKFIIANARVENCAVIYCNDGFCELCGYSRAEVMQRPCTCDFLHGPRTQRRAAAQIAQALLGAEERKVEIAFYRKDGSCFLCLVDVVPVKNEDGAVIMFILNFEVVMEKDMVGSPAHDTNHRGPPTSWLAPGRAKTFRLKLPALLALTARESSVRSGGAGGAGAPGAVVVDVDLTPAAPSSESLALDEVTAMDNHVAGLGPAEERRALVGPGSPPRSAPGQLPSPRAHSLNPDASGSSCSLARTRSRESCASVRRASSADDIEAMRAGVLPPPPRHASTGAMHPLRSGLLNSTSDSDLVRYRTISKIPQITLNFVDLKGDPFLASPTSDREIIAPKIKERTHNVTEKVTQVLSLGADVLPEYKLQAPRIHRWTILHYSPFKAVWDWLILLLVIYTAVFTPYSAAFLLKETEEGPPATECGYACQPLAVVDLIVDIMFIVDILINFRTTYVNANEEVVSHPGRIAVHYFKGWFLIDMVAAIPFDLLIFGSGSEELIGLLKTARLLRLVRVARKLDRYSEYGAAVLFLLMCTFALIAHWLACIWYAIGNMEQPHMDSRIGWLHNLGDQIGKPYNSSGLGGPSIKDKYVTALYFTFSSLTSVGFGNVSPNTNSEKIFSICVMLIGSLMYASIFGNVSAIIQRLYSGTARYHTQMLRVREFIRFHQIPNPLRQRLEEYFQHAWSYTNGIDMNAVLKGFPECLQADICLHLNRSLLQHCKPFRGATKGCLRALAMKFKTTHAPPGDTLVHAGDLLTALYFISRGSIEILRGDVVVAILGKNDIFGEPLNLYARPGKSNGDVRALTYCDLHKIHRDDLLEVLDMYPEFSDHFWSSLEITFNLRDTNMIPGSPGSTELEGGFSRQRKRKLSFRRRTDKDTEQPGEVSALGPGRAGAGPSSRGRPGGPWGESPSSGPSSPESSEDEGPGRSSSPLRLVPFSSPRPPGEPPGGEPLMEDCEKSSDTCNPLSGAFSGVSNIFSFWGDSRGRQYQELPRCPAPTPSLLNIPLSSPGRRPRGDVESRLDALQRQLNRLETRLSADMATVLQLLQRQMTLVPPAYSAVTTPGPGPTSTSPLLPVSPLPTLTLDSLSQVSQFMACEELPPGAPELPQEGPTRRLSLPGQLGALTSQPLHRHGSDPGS

T1 sequence (Q15303 whole entry): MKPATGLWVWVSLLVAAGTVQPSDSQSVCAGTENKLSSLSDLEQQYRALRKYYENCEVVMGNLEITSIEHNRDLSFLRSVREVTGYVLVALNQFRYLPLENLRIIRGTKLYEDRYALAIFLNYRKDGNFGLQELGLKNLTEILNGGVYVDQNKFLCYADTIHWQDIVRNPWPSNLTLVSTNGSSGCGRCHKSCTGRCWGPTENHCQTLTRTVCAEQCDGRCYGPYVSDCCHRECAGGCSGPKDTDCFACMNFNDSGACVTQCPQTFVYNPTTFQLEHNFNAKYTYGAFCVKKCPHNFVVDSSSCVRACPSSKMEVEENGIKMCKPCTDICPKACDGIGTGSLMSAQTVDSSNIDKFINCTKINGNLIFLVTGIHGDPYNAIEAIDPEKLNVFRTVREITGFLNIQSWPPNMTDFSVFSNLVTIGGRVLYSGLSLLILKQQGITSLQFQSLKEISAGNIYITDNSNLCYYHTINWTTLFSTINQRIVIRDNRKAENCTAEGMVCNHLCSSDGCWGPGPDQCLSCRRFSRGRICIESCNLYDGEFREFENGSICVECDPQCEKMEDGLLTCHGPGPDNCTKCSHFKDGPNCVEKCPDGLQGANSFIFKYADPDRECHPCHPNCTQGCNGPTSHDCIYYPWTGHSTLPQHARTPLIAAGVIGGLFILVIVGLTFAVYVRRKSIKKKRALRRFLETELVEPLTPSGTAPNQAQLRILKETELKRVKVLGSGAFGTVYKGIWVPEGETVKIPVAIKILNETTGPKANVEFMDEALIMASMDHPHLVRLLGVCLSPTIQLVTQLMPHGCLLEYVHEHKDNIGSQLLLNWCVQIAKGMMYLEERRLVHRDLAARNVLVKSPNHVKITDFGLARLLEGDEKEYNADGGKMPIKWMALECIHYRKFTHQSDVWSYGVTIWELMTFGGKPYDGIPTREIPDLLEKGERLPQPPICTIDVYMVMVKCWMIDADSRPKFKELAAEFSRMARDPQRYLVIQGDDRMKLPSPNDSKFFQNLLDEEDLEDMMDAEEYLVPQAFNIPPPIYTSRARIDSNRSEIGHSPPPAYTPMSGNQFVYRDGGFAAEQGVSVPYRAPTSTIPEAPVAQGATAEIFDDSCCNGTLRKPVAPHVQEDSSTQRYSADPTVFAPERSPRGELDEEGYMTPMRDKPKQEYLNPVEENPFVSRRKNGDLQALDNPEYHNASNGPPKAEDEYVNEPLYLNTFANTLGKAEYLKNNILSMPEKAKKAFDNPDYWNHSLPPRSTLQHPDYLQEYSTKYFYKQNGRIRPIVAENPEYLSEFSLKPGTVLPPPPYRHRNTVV
Sequence of RAF proto-oncogene serine/threonine-protein kinase (P04049 whole entry): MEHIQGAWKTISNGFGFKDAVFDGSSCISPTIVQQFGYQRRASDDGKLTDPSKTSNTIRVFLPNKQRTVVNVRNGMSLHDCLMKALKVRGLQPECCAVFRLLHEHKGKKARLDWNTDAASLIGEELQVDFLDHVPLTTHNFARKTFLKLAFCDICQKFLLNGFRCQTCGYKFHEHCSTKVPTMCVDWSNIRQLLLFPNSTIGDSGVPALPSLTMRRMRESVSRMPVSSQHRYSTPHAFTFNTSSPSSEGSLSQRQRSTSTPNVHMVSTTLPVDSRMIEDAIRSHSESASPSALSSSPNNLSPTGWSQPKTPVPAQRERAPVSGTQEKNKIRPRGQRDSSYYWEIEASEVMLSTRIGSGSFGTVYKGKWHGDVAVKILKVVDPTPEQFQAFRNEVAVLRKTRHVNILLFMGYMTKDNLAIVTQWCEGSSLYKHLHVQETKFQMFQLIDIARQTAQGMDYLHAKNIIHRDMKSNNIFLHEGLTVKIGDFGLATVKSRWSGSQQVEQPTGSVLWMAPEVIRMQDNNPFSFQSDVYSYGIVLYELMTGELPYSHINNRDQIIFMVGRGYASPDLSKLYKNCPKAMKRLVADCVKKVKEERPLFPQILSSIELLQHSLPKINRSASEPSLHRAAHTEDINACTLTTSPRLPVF
Sequence of Tyrosine-protein kinase JAK3 (Homo sapiens) (P52333 whole entry): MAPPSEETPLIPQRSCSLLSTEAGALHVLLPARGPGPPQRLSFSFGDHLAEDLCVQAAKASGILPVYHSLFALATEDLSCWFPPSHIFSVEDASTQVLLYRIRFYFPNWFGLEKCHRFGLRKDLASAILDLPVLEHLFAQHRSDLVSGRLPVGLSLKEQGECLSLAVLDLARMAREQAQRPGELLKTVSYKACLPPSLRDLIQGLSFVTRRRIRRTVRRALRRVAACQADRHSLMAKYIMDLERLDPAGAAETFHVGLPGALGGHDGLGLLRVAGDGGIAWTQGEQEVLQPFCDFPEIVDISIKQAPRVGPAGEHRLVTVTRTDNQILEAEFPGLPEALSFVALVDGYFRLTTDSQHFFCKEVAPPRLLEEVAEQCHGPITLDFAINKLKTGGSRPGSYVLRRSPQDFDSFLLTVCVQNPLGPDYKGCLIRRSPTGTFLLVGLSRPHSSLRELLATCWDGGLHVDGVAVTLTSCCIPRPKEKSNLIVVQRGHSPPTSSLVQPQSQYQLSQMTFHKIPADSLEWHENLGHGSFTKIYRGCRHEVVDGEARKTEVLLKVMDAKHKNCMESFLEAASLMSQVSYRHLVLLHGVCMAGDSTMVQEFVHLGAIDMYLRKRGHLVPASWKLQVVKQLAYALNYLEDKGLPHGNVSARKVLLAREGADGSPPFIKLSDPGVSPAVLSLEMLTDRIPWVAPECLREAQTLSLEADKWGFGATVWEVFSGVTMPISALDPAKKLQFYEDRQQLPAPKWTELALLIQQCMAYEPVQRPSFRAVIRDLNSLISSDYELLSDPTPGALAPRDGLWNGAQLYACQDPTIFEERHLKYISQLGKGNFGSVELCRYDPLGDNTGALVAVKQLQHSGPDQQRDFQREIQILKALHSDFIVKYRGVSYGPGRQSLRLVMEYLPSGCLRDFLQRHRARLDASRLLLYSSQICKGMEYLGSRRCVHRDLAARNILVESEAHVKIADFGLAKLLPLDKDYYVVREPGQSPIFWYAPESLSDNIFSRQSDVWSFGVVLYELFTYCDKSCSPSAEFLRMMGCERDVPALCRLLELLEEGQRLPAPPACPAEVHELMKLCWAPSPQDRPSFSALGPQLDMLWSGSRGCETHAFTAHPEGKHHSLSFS
Sequence of Serine/threonine-protein kinase B-raf (Homo sapiens), P15056 [V600E] (P15056 whole entry V600E): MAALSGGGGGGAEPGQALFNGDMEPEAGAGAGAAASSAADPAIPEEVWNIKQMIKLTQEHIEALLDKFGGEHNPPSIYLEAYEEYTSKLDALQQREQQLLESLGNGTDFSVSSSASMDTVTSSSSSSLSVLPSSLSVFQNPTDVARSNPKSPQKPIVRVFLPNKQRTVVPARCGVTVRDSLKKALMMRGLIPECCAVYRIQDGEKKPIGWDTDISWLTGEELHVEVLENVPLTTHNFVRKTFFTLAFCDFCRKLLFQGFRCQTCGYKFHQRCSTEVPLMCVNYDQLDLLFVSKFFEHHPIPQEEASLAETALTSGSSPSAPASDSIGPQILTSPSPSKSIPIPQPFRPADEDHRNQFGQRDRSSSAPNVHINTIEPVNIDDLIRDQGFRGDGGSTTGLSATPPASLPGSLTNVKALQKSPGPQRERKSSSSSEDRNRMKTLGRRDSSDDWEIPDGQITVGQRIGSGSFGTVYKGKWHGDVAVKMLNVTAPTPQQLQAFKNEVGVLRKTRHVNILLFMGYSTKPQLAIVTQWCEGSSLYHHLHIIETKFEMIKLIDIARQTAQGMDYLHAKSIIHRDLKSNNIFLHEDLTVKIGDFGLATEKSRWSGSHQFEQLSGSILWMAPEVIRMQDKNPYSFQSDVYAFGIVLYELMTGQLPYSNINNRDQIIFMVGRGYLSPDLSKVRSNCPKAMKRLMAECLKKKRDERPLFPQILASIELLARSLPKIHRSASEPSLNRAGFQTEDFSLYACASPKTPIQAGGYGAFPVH

For `CS(=O)(=O)c1nccc(-c2c(-c3cccc(OCc4ccccc4)c3)nc3sccn23)n1`, the growth at 10 µM in assay [1] amounted to 63.4%. The IC50 was found to be 3.78 µM with OVCAR-4 [2]; 1.04 µM in the assay on MDA-MB-468; 8.54 µM with WI-38; 0.0152 µM in assay [7]; 12.4 µM in assay [9]. Moreover, the inhibition at 10 µM is 73.5% with MOLT-4; 94.1% with NCI-H522; 99.9% in the assay on SK-MEL-5; 26.2% in the assay on OVCAR-4 [3]; 160% in the assay with DU-145. Also, the inhibition in assay [4] was found to be 23%; in assay [5], 62.1%; in assay [6], 77.5%. Besides, the Ratio IC50 in [8] turned out to be 9.
